Assay results taken from ChEMBL document CHEMBL1201862, “PubChem BioAssay data set” (2004).
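Dose response: 5 concentrations. Exposure: 48 h. Format: 96-well plates. Endpoint: linear interpolation; highest concentration if not reached. At the GI50, growth is halved.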 Activity calls are given as the source filed them. No stated cut-off is given here; in the data, active = GI50 up to about 1.1 µM and inactive = higher.

Assays:
Experiment in all cases: NCI anticancer screen, dose series, 48 h
A498 = test system: A498
A549 = test system: A549
HL-60 = test system: HL-60
Hs-578T = test system: Hs-578T
IGROV-1 = test system: IGROV-1
MCF7 = test system: MCF7
MDA-MB-435 = test system: MDA-MB-435
MOLT-4 = test system: MOLT-4
NCI-H226 = test system: NCI-H226
NCI-H460 = test system: NCI-H460
NCI/ADR-RES = test system: NCI/ADR-RES
OVCAR-5 = test system: OVCAR-5
OVCAR-8 = test system: OVCAR-8
RXF 393 = test system: RXF 393
SF-539 = test system: SF-539
SK-MEL-5 = test system: SK-MEL-5
SN12C = test system: SN12C
SW-620 = test system: SW-620
T47D = test system: T47D
U-251 = test system: U-251

Structure (SMILES)	GI50 (A498)	GI50 (A549)	GI50 (HL-60)	GI50 (Hs-578T)	GI50 (IGROV-1)	GI50 (MCF7)	GI50 (MDA-MB-435)	GI50 (MOLT-4)	GI50 (NCI-H226)	GI50 (NCI-H460)	GI50 (NCI/ADR-RES)	GI50 (OVCAR-5)	GI50 (OVCAR-8)	GI50 (RXF 393)	GI50 (SF-539)	GI50 (SK-MEL-5)	GI50 (SN12C)	GI50 (SW-620)	GI50 (T47D)	GI50 (U-251)
OCCc1ccsc1-c1sc(-c2cc(CCO)c(-c3sc(-c4cc(CCO)c(-c5sccc5CCO)s4)cc3CCO)s2)cc1CCO	2 µM (inactive)	0.656 µM (active)	1.53 µM (inactive)	3.13 µM (inactive)	1.21 µM (inactive)	0.624 µM (active)	1.32 µM (inactive)	0.52 µM (active)	1.65 µM (inactive)	0.841 µM (active)	1.86 µM (inactive)	1.38 µM (inactive)	1.55 µM (inactive)	0.454 µM (active)	1.44 µM (inactive)	1.13 µM (inactive)	1.85 µM (inactive)	1.31 µM (inactive)	1.3 µM (inactive)	0.957 µM (active)
Cn1c(=O)cc(NNc2ccc(Cl)c(Cl)c2)[nH]c1=O	36.8 µM (inactive)	16.2 µM (inactive)	8 µM (inactive)	20.4 µM (inactive)	6.52 µM (inactive)	6.41 µM (inactive)	3.31 µM (inactive)	14.5 µM (inactive)	19.5 µM (inactive)	4.86 µM (inactive)	13.3 µM (inactive)	14.4 µM (inactive)	13.6 µM (inactive)	22.9 µM (inactive)	15.1 µM (inactive)	5.31 µM (inactive)	4.34 µM (inactive)	6.1 µM (inactive)	4.99 µM (inactive)	12.4 µM (inactive)
CCOP(=O)(OCC)/C(C#N)=C/c1ccccn1	> 100 µM (inactive)	> 100 µM (inactive)	> 100 µM (inactive)	> 100 µM (inactive)	> 100 µM (inactive)	> 100 µM (inactive)	> 100 µM (inactive)	> 100 µM (inactive)	> 100 µM (inactive)	> 100 µM (inactive)	> 100 µM (inactive)	> 100 µM (inactive)	> 100 µM (inactive)	> 100 µM (inactive)	> 100 µM (inactive)	> 100 µM (inactive)	> 100 µM (inactive)	> 100 µM (inactive)	> 100 µM (inactive)	> 100 µM (inactive)
Cc1ccc(-c2cc(-c3cc(-c4ccc(C)cc4C)[nH]n3)[nH]n2)c(C)c1	16.6 µM (inactive)	13.9 µM (inactive)	0.027 µM (active)	18.1 µM (inactive)	13.7 µM (inactive)	15 µM (inactive)	14.7 µM (inactive)	10.1 µM (inactive)	20.5 µM (inactive)	7.93 µM (inactive)	18.9 µM (inactive)	23.7 µM (inactive)	15 µM (inactive)	14.4 µM (inactive)	17 µM (inactive)	16.4 µM (inactive)	15.3 µM (inactive)	11.8 µM (inactive)	15 µM (inactive)	13.5 µM (inactive)
C=C(CCCCCCCCC)CC(=O)SCCNC(=O)CCNC(=O)C(O)C(C)(C)COP(=O)(O)OP(=O)(O)OCC1OC(n2cnc3c(N)ncnc32)C(O)C1OP(=O)(O)O (stereo not given)	> 100 µM (inactive)	> 92.5 µM (inactive)	36.1 µM (inactive)	> 64.4 µM (inactive)	98.2 µM (inactive)	> 87.5 µM (inactive)	26.6 µM (inactive)	> 57.1 µM (inactive)	> 100 µM (inactive)	35.4 µM (inactive)	> 100 µM (inactive)	> 100 µM (inactive)	58.2 µM (inactive)	> 71.1 µM (inactive)	51.3 µM (inactive)	31.6 µM (inactive)	> 84.3 µM (inactive)	> 100 µM (inactive)	> 76.9 µM (inactive)	49.9 µM (inactive)
